“And” between values parts separate entries of the source, which are not always exact repeats. Identical values can stand only once.
Experiments:
hCB1 = hCB1 (Homo sapiens, UniProt P21554); experiment: Tango β-arrestin-2 recruitment, HTLA cells, CB1R; assay type: cell-based; set-up: expressed in transfected cells; host or cells: HTLA cells (gift of R. Axel), transient transfection
hCB2 = hCB2 (Homo sapiens, UniProt P34972); experiment: TRUPATH BRET2 GoA dissociation, HEK293T; assay type: cell-based; set-up: expressed in transfected cells; host or cells: HEK293T cells (ATCC: CRL-3216), transient co-transfection; conditions: for functional response, concentration-response point (FigS7e, normalized): Log[drug], replicate columns
hCB2, sequence (P34972 whole entry): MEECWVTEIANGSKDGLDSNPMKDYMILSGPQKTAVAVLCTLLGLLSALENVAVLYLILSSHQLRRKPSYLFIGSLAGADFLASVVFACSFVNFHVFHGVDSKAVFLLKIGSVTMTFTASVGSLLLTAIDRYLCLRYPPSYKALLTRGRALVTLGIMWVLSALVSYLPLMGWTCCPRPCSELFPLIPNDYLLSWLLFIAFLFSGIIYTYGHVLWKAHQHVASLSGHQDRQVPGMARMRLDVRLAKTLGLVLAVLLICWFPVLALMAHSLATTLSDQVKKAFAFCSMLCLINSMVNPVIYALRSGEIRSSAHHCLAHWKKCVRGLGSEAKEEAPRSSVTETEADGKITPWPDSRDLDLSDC

hCB1, sequence (P21554 whole entry): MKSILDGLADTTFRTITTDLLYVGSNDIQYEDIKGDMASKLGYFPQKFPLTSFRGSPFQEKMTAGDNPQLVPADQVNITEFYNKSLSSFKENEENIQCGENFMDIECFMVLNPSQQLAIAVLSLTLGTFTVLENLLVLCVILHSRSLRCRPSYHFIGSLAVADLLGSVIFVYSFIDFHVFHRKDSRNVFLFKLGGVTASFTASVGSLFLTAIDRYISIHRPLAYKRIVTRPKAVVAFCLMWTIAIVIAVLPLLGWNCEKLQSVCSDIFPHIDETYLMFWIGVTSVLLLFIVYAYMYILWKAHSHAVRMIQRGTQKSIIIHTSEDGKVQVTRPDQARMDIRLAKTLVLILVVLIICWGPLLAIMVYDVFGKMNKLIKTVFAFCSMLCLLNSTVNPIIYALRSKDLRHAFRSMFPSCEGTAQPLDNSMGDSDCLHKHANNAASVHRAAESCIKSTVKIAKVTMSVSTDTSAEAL

With `COC(=O)[C@@H]1[C@@H]2CCC[C@@H]2CN1C(=O)c1cc(C)n(-c2cccc(C(F)(F)F)c2)n1` [‘6439] the “response, replicate values of concentration-response curve (FigS7f)” value (shortened to “response, replicate values”) (hCB1; Log[drug], M = -4.52) was -10.8475 and 13.7559 and -1.3408 and 30.128 and 34.5335 and 23.984 and 49.6721 and 28.9692 and 37.5272, the “response, replicate values” value (hCB1; Log[drug], M = -5) was 12.97 and -6.259 and -29.1004 and -18.7713 and 7.052 and 41.6727 and 31.5861 and -0.2412 and 17.8549 and 115.231 and 93.3593 and 69.1731 and the “response, replicate values” value (hCB1; Log[drug], M = -5.52) was -14.7516 and -1.011 and 3.958 and 21.4628 and 26.9697 and -2.702 and -24.3795 and -8.092 and 23.1695 and 55.5034 and 99.9754 and 83.8088. For the same compound, the “response at Log[drug], M -5.52 (FigS4e)” value (hCB1; Log[drug], M = -5.52, individual replicates) was 41.0598 and 42.1112 and 37.5809 and 36.0059 and 27.2068 and 23.0093 and 28.7041 and 23.0465 and 29.4359 and 31.2692 and 37.5598 and 31.3786, the “response, replicate values” value (hCB1; Log[drug], M = -6) was -7.78 and 1.232 and -8.579 and 16.9776 and 8.83 and 54.3719 and -17.0743 and 6.68 and 7.903 and 46.3174 and 81.0931 and 82.3871 and the “response at Log[drug], M -6 (FigS4e)” value (hCB1; Log[drug], M = -6, individual replicates) was 26.6779 and 28.882 and 31.009 and 30.2093 and 13.1731 and 19.3667 and 17.0092 and 18.0259 and 28.822 and 23.6752 and 23.7677 and 25.0376. The “response, replicate values” value (hCB1; Log[drug], M = -6.52) was 6.949 and 23.0344 and 26.685 and -30.9662 and -12.5345 and 9.44 and -7.445 and 20.4415 and 28.8782 and 41.1229 and 58.9482 and 96.877, the “response at Log[drug], M -6.52 (FigS4e)” value (hCB1; Log[drug], M = -6.52, individual replicates) was 20.6989 and 18.775 and 18.227 and 14.6552 and 8.92 and 7.4713 and 4.648 and 5.829 and 9.707 and 10.7245 (2×) and 6.125 and the “response, replicate values” value (hCB1; Log[drug], M = -7) was 31.5144 and 45.4069 and -35.2101 and -37.1897 and 1.93 and 0.2842 and 7.478 and -20.5097 and -17.3775 and 49.0331 and 80.6374 and 65.8924. For the same compound, the “response at Log[drug], M -7 (FigS4e)” value (hCB1; Log[drug], M = -7, individual replicates) was 6.9232 and 8.043 and 10.8845 and 9.988 and 0.5556 and -1.865 and 0.4774 and 0.6189 and 2.467 and 3.148 and 2.635 and 4.207, the “response, replicate values” value (hCB1; Log[drug], M = -7.52) was -4.763 and -11.0123 and 28.1301 and -8.049 and -20.0319 and -11.1013 and -22.9649 and -19.4286 and 2.9819 and 44.3307 and 18.8869 and 45.9893 and the “response at Log[drug], M -7.52 (FigS4e)” value (hCB1; Log[drug], M = -7.52, individual replicates) was 6.822 and 6.684 and 9.44 and 7.52 and -3.124 and -0.9675 and -2.021 and -2.681 and -0.3421 and -0.05622 and 2.349 and 1.533. The “response at Log[drug], M -8 (FigS4e)” value (hCB1; Log[drug], M = -8, individual replicates) was 5.884 and 9.216 and 9.707 and 9.61 and -1.035 and -0.111 and -1.31 and -2.509 and 0.4231 and 1.197 and 7.663 and 1.289, the “response at Log[drug], M -8.52 (FigS4e)” value (hCB1; Log[drug], M = -8.52, individual replicates) was 12.6416 and 8.6666 and 7.701 and 11.5559 and 0.09453 and -1.259 and 2.111 and -1.3123 and 0.08722 and 0.8217 and 1.887 and 4.054 and the “response at Log[drug], M -9 (FigS4e)” value (hCB1; Log[drug], M = -9, individual replicates) was 6.15 and 10.745 and 10.5633 and 11.2546 and -2.544 and -0.8488 and 0.7085 and -0.4422 and 2.383 and 3.898 and 2.695 and 3.787. For the same compound, the “response, replicate values” value (hCB1; Log[drug], M = -9.52) was -11.8869 and 10.4349 and -26.9456 and -12.2027 and 18.9813 and -12.6008 and 11.5803, the “response at Log[drug], M -9.52 (FigS4e)” value (hCB1; Log[drug], M = -9.52, individual replicates) was 7.12 and 7.04 and 8.157 and 9.473 and -0.8081 and -1.207 and -0.4666 and -1.821 and 4.375 and 2.502 and 0.01377 and 0.5555 and the “response, replicate values” value (hCB1; Log[drug], M = -10) was 17.8121 and -5.27 and 8.977 and 22.6969 and 39.8414 and 41.3409 and 56.1992 and 5.841 and 17.8346 and -4.352 and 10.4482 and -28.6471. For the same compound, the “response at Log[drug], M -10 (FigS4e)” value (hCB1; Log[drug], M = -10, individual replicates) was 8.321 and 7.43 and 8.2855 and 10.5544 and 1.814 and -2.821 and -0.4869 and -0.1291 and 2.41 and 4.577 and 0.8034 and 1.18, the “response at Log[drug], M -10.52 (FigS4e)” value (hCB1; Log[drug], M = -10.52, individual replicates) was 8.25 and 8.706 and 9.026 and 10.1955 and -1.024 and 0.4442 and -0.6414 and 0.7573 and 1.648 and 0.8217 and 2.116 and 5.22 and the “response at Log[drug], M -11 (FigS4e)” value (hCB1; Log[drug], M = -11, individual replicates) was 3.256 and 4.195 and 6.189 and 8.184 and 0.0864 and 0.615 and -0.08844 and -0.05998 and 3.273 and 3.861 and 4.338 and 1.74. The “response at Log[drug], M -11.52 (FigS4e)” value (hCB1; Log[drug], M = -11.52, individual replicates) was 5.192 and 4.514 and 4.754 and 3.593 and 1.237 and 0.5215 and -0.05998 and -1.081 and -0.5647 and 0.7391 and 0.6014 and 3.236, the “response at Log[drug], M -12 (FigS4e)” value (hCB1; Log[drug], M = -12, individual replicates) was 0.3534 and 0.1806 and 0.07866 and -0.6126 and -2.04 and 1.058 and -0.6333 and 1.615 and -1.51 and 0.6106 and 0.6473 and 0.2525 and the EC50 (hCB1; hCB1, read-out: Tango ß-arrestin recruitment EC50) was > 10000 nM. For the same compound, the EC50 (hCB2) was 97.1 nM, the “BRET2 + GoA Emax” value (hCB2; % of CP-55,940) was 81% [34 – 128] and the “functional response, concentration-response point (FigS7e, normalized)” value (from here on “functional response … (FigS7e, normalized)”) (hCB2; M = -5) was 12.9272 and 15.9912 and 13.3933 and 14.1917 and 9.02 and 8.9115 and 9.964 and 9.677 and 16.1327 and 18.1614 and 17.7797 and 17.4918. The “functional response … (FigS7e, normalized)” value (hCB2; M = -5.52) was 13.7946 and 14.1528 and 14.7009 and 15.5942 and 7.819 and 9.861 and 11.3112 and 10.248 and 13.5348 (2×) and 16.0255 and 15.2556, the “functional response … (FigS7e, normalized)” value (hCB2; M = -6) was 13.5098 and 11.3391 and 11.5247 and 10.1826 and 7.139 and 7.697 and 10.1371 and 9.4066 and 13.2838 and 11.7338 and 12.1556 and 10.2207 and the “functional response … (FigS7e, normalized)” value (hCB2; M = -6.52) was 8.245 and 8.18 and 7.1316 and 8.582 and 5.652 and 4.45 and 4.542 and 4.824 and 8.731 and 6.786 and 7 and 7.151. For the same compound, the “functional response … (FigS7e, normalized)” value (hCB2; M = -7) was 3.477 and 2.251 and 1.336 and 1.824 and 2.04 and 2.129 and 1.242 and 0.8388 and 2.913 and 2.96 and 2.756 and 1.624, the “functional response … (FigS7e, normalized)” value (hCB2; M = -7.52) was 0.5378 and 0.2401 and 2.191 and 0.8701 and 1.326 and 0.4303 and 0.552 and 0.1165 and 1.032 and 0.8075 and 1.393 and 1.507 and the “functional response … (FigS7e, normalized)” value (hCB2; M = -8) was 0.2919 and 0.01139 and 0.3868 and 0.4645 and -0.1973 and 0.3762 and 0.9064 and 1.539 and 0.3891 and 0.4427 and 0.6703 and 0.6301. For the same compound, the “functional response … (FigS7e, normalized)” value (hCB2; M = -8.52) was -0.3369 and -0.3039 and -0.3274 and -0.06361 and -0.07458 and 0.1558 and -0.006646 and 0.09378 and 0.05117 and 0.1425 and 0.3472 and 0.4422 and the “functional response … (FigS7e, normalized)” value (hCB2; M = -12) was 0.6997 and -0.1013 and -0.3699 and -0.2285.
